Assay [1] concerns the target T1, FAAH (Mus musculus, UniProt O08914).
T1 construct: A fragment of liver, left lung lobe and brain without cerebellum were removed; from tissue; host or cells: male NMRI mice; brain (without cerebellum) and liver homogenates
T1 sequence (O08914 1-579): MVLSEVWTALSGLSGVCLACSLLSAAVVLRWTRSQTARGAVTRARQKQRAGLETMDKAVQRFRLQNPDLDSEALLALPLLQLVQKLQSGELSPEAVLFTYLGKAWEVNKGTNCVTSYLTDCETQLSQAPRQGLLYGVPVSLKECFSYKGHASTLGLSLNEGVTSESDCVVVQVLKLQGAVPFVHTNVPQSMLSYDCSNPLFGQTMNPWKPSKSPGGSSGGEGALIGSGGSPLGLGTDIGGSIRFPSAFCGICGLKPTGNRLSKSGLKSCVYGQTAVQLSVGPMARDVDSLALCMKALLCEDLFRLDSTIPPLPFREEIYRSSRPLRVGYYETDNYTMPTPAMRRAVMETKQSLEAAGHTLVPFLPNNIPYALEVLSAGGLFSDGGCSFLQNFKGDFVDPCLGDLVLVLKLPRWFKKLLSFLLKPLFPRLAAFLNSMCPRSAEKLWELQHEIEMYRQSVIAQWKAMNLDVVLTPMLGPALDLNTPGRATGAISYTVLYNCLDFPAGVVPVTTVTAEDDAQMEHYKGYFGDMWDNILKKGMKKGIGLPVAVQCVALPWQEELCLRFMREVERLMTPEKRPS
The experiment in a line: In vivo FAAH inhibition after oral dosing, remaining activity in brain homogenate (BRh, central nervous tissue). Set-up: species or system NMRI mice. Conditions: brain homogenate, low value = strong inhibitor; for In Vivo BRh 3 mg·kg 8 h (remaining FAAH activity, % of control): 8 h after dosing; for In Vivo BRh 3 mg · kg · 8 h (remaining FAAH activity): 3 mg/kg oral. The protocol: (§1) The in vivo test was performed according to the protocol described below. BRh indicates inhibition in central nervous tissue and LVh indicates inhibition in peripheral tissue, in this case liver.
(§2) The animals used for experiments were male NMRI mice (weighing 27-44 g) obtained from Interfauna Ibérica (Spain). Mice were kept 5 per cage, under controlled environmental conditions (12 hr light/dark cycle and room temperature 22±1° C.). Food and tap water were allowed ad libitum and the experiments were all carried out during daylight hours.
(§3) Animals were administered 30 mg/kg or 3 mg/kg compounds of the invention via oral route (8 ml/kg; compound suspended in 0.5% carboxymethylcellulose (CMC) or solubilized in water) or vehicle (controls) using animal feeding stainless steel curve needles (Perfectum, U.S.A.). Fifteen minutes before sacrifice animal were anesthetized with pentobarbital 60 mg/kg administered intraperitoneally. A fragment of liver, left lung lobe and brain without cerebellum were removed and put in plastic vials containing membrane buffer (3 mM MgCl2, 1 mM EDTA, 50 mM Tris HCl pH 7.4). Tissues were stored at −30° C. until analysis.
(§4) Animals were always fasted overnight before administration of compounds except for time points of >18 h, where food was removed on the morning of day of administration and the compound was administered in the afternoon of the same day. Animals were then given water but nothing else.
(§5) Tissues were thawed on ice and were homogenized in 10 volumes of membrane buffer (3 mM MgCl2, 1 mM EDTA, 50 mM Tris HCl pH 7.4) with either Potter-Elvejhem (brains—8 strokes at 500 rpm) or Heidolph Diax (livers—2 strokes at position 5 for 20 sec with 30 sec pauses).
(§6) Total protein in tissues was determined with the BioRad Protein Assay (BioRad) using a standard curve of BSA (50-250 μg/ml).
(§7) Reaction mix (total volume of 200 μl) contained: […] (2 μM AEA+5 nM ^3H-AEA), 0.1% fatty acid free BSA, 15 μg (brain), 5 μg (liver) or 50 μg (lung) protein, in 1 mM EDTA, 10 mM Tris pH 7.6. After a […] pre-incubation period at 37° C., reaction was started by the addition of the substrate solution (cold AEA+radiolabelled AEA+BSA). Reaction was carried out for 10 min (brain and lung) or […] (liver) before termination by the addition of 400 μl activated charcoal suspension (8 g charcoal in 32 ml 0.5 M HCl in continuous agitation). After a […] incubation period at room temperature with agitation, charcoal was sedimented by centrifugation in microfuge (10 min at 13000 rpm). 200 μl of the supernatant were added to 800 μl Optiphase Supermix scintillation cocktail previously distributed in 24-well plates. Counts per minute (cpm) were determined in a MicrobetaTriLux scintillation counter.
(§8) In each assay blanks (without protein) were prepared.
(§9) The percentage of remaining enzymatic activity was calculated in respect to controls and after blank subtraction.

Assay [2] addresses T1, FAAH. The experiment in a line: In vivo FAAH inhibition after oral dosing, remaining activity in liver homogenate (LVh, peripheral tissue). Set-up: species or system NMRI mice. As to conditions: liver homogenate, low value = strong inhibitor; for In Vivo LVh 3 mg·kg 8 h (remaining FAAH activity, % of control): 8 h after dosing; for In Vivo LVh 3 mg · kg · 8 h (remaining FAAH activity): 3 mg/kg oral. The protocol:
as §1, §2, §3, §4, §5, §6, §7, §8, §9

With `COc1ccc(-c2cn(C(=O)N(C)C3CCNCC3)cn2)cc1N` [Compound no. 450, 4-(3-amino-4-methoxyphenyl)-N-methyl-N-(piperidin-4-yl)-1H-imidazole-1-carboxamide], the “In Vivo BRh 3 mg·kg 8 h (remaining FAAH activity, % of control)” value at FAAH [1] is on record as 114.2 % of control. Also, the “In Vivo LVh 3 mg·kg 8 h (remaining FAAH activity, % of control)” value at FAAH [2] is 65.4 % of control.

On to `CN(C(=O)n1cnc(-c2cccnc2)c1)C1CCN(CCc2ccccc2)CC1` [Compound no. 488, N-methyl-N-(1-phenethylpiperidin-4-yl)-4-(pyridin-3-yl)-1H-imidazole-1-carboxamide], for which the “In Vivo BRh 3 mg·kg 8 h (remaining FAAH activity, % of control)” value on FAAH [1] is 3.8 % of control. In addition, the “In Vivo LVh 3 mg·kg 8 h (remaining FAAH activity, % of control)” value at FAAH [2] is on record as 2 % of control.

Consider `CN(C(=O)n1cnc(-c2cccc(C(=O)NO)c2)c1)C1CCCCC1` [Compound no. 424, N-cyclohexyl-4-(3-(hydroxycarbamoyl)phenyl)-N-methyl-1H-imidazole-1-carboxamide], for which the “In Vivo BRh 3 mg·kg 8 h (remaining FAAH activity, % of control)” value at FAAH [1] is given as 1 % of control. At FAAH [2], the “In Vivo LVh 3 mg·kg 8 h (remaining FAAH activity, % of control)” value was 0.5 % of control.

Consider `COc1ccc(-c2cn(C(=O)N(C)C3CCCCC3)cn2)cc1-c1nn[nH]n1` [Compound no. 438, N-cyclohexyl-4-(4-methoxy-3-(2H-tetrazol-5-yl)phenyl)-N-methyl-1H-imidazole-1-carboxamide], for which, at FAAH [1], the “In Vivo BRh 3 mg·kg 8 h (remaining FAAH activity, % of control)” value is 92.4 % of control. Moreover, the “In Vivo LVh 3 mg·kg 8 h (remaining FAAH activity, % of control)” value on FAAH [2] was 6.1 % of control.

Regarding `CN(C(=O)n1cnc(-c2ccc(S(C)(=O)=O)cc2)c1)C1CCCCC1` [Compound no. 422, N-cyclohexyl-N-methyl-4-(4-(methylsulfonyl)phenyl)-1H-imidazole-1-carboxamide], the “In Vivo BRh 3 mg·kg 8 h (remaining FAAH activity, % of control)” value at FAAH [1] is 1.7 % of control. Further, on FAAH [2], the “In Vivo LVh 3 mg·kg 8 h (remaining FAAH activity, % of control)” value is recorded as 2.7 % of control.

For `COc1ccc(-c2cn(C(=O)N(C)C3CCCCC3)cn2)cc1C(N)=O` [Compound no. 482, 4-(3-carbamoyl-4-methoxyphenyl)-N-cyclohexyl-N-methyl-1H-imidazole-1-carboxamide], the “In Vivo BRh 3 mg·kg 8 h (remaining FAAH activity, % of control)” value at FAAH [1] is 83.2 % of control. Further, at FAAH [2], the “In Vivo LVh 3 mg·kg 8 h (remaining FAAH activity, % of control)” value is given as 16.7 % of control.

Regarding `CCCN1CCC(N(C)C(=O)n2cnc(-c3cccc(C(=O)NO)c3)c2)CC1` [Compound 552, 4-(3-(hydroxycarbamoyl)phenyl)-N-methyl-N-(1-propylpiperidin-4-yl)-1H-imidazole-1-carboxamide], the “In Vivo BRh 3 mg · kg · 8 h (remaining FAAH activity)” value on FAAH [1] is recorded as 90.2 % of control. Besides, on FAAH [2], the “In Vivo LVh 3 mg · kg · 8 h (remaining FAAH activity)” value is 45 % of control.

On to `CCCN1CCC(N(C)C(=O)n2cnc(-c3ccc[n+]([O-])c3)c2)CC1` [Compound no. 519, 3-(1-(methyl(1-propylpiperidin-4-yl)carbamoyl)-1H-imidazol-4-yl)pyridine 1-oxide], for which the “In Vivo BRh 3 mg · kg · 8 h (remaining FAAH activity)” value at FAAH [1] is listed as 82 % of control. Besides, the “In Vivo LVh 3 mg · kg · 8 h (remaining FAAH activity)” value at FAAH [2] is recorded as 4.4 % of control.

For `CCN1CCC(N(C)C(=O)n2cnc(-c3ccc(OC)c(F)c3)c2)CC1` [Compound no. 503, N-(1-ethylpiperidin-4-yl)-4-(3-fluoro-4-methoxyphenyl)-N-methyl-1H-imidazole-1-carboxamide], the “In Vivo BRh 3 mg · kg · 8 h (remaining FAAH activity)” value at FAAH [1] is 78.8 % of control. Besides, at FAAH [2], the “In Vivo LVh 3 mg · kg · 8 h (remaining FAAH activity)” value is 25.1 % of control.

On to `Br.CCN1CCC(N(C)C(=O)n2cnc(-c3ccc(F)c(O)c3)c2)CC1` [Compound 561, N-(1-ethylpiperidin-4-yl)-4-(4-fluoro-3-hydroxyphenyl)-N-methyl-1H-imidazole-1-carboxamide hydrobromide], for which the “In Vivo BRh 3 mg · kg · 8 h (remaining FAAH activity)” value on FAAH [1] is 82.2 % of control. The “In Vivo LVh 3 mg · kg · 8 h (remaining FAAH activity)” value at FAAH [2] was 78.6 % of control.

Regarding `CN(C(=O)n1cnc(-c2ccc(-c3noc(=O)[nH]3)cc2)c1)C1CCCCC1` [Compound 551, N-cyclohexyl-N-methyl-4-(4-(5-oxo-4,5-dihydro-1,2,4-oxadiazol-3-yl)phenyl)-1H-imidazole-1-carboxamide], the “In Vivo BRh 3 mg · kg · 8 h (remaining FAAH activity)” value on FAAH [1] is 85.2 % of control. Also, the “In Vivo LVh 3 mg · kg · 8 h (remaining FAAH activity)” value at FAAH [2] is listed as 3.8 % of control.

`CCN1CCC(N(C)C(=O)n2cnc(-c3cccc(OC)c3)c2)CC1` [Compound no. 502, N-(1-ethylpiperidin-4-yl)-4-(3-methoxyphenyl)-N-methyl-1H-imidazole-1-carboxamide]: the “In Vivo BRh 3 mg · kg · 8 h (remaining FAAH activity)” value on FAAH [1] is listed as 50.2 % of control. On FAAH [2], the “In Vivo LVh 3 mg · kg · 8 h (remaining FAAH activity)” value is 11.5 % of control.

For `CN(C(=O)n1cnc(-c2ccc(O)c(C(N)=O)c2)c1)C1CCCCC1` [Compound no. 499, 4-(3-carbamoyl-4-hydroxyphenyl)-N-cyclohexyl-N-methyl-1H-imidazole-1-carboxamide], the “In Vivo BRh 3 mg · kg · 8 h (remaining FAAH activity)” value at FAAH [1] was 120.6 % of control. For the same compound, the “In Vivo LVh 3 mg · kg · 8 h (remaining FAAH activity)” value on FAAH [2] is listed as 44.1 % of control.

As for `COc1ccc(-c2cn(C(=O)N(C)C3CCN(CCO)CC3)cn2)cc1F` [Compound no. 540, 4-(3-fluoro-4-methoxyphenyl)-N-(1-(2-hydroxyethyl)piperidin-4-yl)-N-methyl-1H-imidazole-1-carboxamide], the “In Vivo BRh 3 mg · kg · 8 h (remaining FAAH activity)” value at FAAH [1] is given as 89.7 % of control. Besides, the “In Vivo LVh 3 mg · kg · 8 h (remaining FAAH activity)” value at FAAH [2] was 33.7 % of control.

`CN(C(=O)n1cnc(-c2ccccc2)c1)C1CCNCC1.Cl` [Compound no. 504, N-methyl-4-phenyl-N-(piperidin-4-yl)-1H-imidazole-1-carboxamide hydrochloride]: the “In Vivo BRh 3 mg · kg · 8 h (remaining FAAH activity)” value at FAAH [1] is given as 112.5 % of control. The “In Vivo LVh 3 mg · kg · 8 h (remaining FAAH activity)” value at FAAH [2] is given as 51.2 % of control.

For the compound `CN(C(=O)n1cnc(-c2ccc(S(=O)(=O)N3CCC(O)CC3)cc2)c1)C1CCCCC1` [Compound no. 432, N-cyclohexyl-4-(4-(4-hydroxypiperidin-1-ylsulfonyl)phenyl)-N-methyl-1H-imidazole-1-carboxamide], the “In Vivo BRh 3 mg·kg 8 h (remaining FAAH activity, % of control)” value at FAAH [1] is 96.1 % of control. In addition, at FAAH [2], the “In Vivo LVh 3 mg·kg 8 h (remaining FAAH activity, % of control)” value is 65.5 % of control.

On to `CN(C(=O)n1cnc(-c2ccc(O)cc2)c1)C1CCN(C(=O)OC(C)(C)C)CC1` [Compound no. 469, tert-butyl 4-(4-(4-hydroxyphenyl)-N-methyl-1H-imidazole-1-carboxamido)piperidine-1-carboxylate], for which the “In Vivo BRh 3 mg·kg 8 h (remaining FAAH activity, % of control)” value on FAAH [1] was 1.4 % of control. Also, at FAAH [2], the “In Vivo LVh 3 mg·kg 8 h (remaining FAAH activity, % of control)” value is 0.7 % of control.

`CN(C(=O)n1cnc(-c2cccc(NC(=N)N)c2)c1)C1CCCCC1.Cl` [Compound 553, N-cyclohexyl-4-(3-guanidinophenyl)-N-methyl-1H-imidazole-1-carboxamide hydrochloride]: on FAAH [1], the “In Vivo BRh 3 mg · kg · 8 h (remaining FAAH activity)” value is reported as 72.3 % of control. Further, the “In Vivo LVh 3 mg · kg · 8 h (remaining FAAH activity)” value on FAAH [2] is recorded as 15.4 % of control.

Source of the values: patent US9353082B2, “Pharmaceutical compounds” (BIAL—PORTELA & CA, S.A., priority 2008, dated 2016).
